Source: patent US20100267954A1, “PROCESS FOR THE PURIFICATION OF PALIPERIDONE” (DIPHARMA FRANCIS S.r.l., priority 2009, published 2010)
Where a name gives a salt, the structure may show the parent alone.

Key:
[1] = compared with Form II, hydrate form and solvate form; per EMEA document; cited from earlier work
[2] = solubility in water (descriptive statement); format: physicochemical; conditions: crystalline solid

Row | SMILES | thermodynamic stability among crystalline forms [1] | solubility in water [2]
1 | Cc1nc2n(c(=O)c1CCN1CCC(c3noc4cc(F)ccc34)CC1)CCCC2O (racemic) [paliperidone Form I, (±)-3-[2-[4-(6-fluoro-1,2-benzoisoxazol-3-yl)-1-piperidinyl]ethyl-6,7,8,9-tetrahydro-9-hydroxy-2-methylpropanediol-4H-pyrido[1,2-a]pyrimidin-4-one] | most thermodynamically stable | poorly soluble in water
2 | Cc1nc2n(c(=O)c1CCN1CCC(c3noc4cc(F)ccc34)CC1)CCCC2O (stereo not drawn) [paliperidone hydrochloride, 3-[2-[4-(6-fluoro-1,2-benzoisoxazol-3-yl)-1-piperidinyl]ethyl-6,7,8,9-tetrahydro-9-hydroxy-2-methyl-4H-pyrido[1,2-a]-pyrimidin-4-one hydrochloride] |  | poorly soluble in water
